The source of these data is patent US5034553A, “Platinum-(II)-diamine complex, method for the preparation of this compound, preparation with an anti-tumour action which contains this compound and also shaped preparations with an anti-tumour action” (Nederlandse Organisatie Voor …, priority 1988, dated 1991).

As usually defined, the IC50 is the midpoint of a concentration-inhibition curve. The low end stands for greater potency in that assay, the high end for weaker potency in that assay.

For one series, the system named is L1210 murine leukaemia. Briefly: Activity against L1210 murine leukaemia. The class given is in vivo, CDF1 mice. To be noted: for % T/C: once on day 1. As to the method: The platinum complex is investigated for anti-tumour action against L1210 murine leukaemia. CDF1 mice with a weight of 20 g were inoculated intraperitoneally with 10^6 ascitic cells of L1210 leukaemia. The administration of the active substance was started the day following the intraperitoneal implantation of the tumour. The complex is administered in diverse amounts by intraperitoneal injections. Groups of 6 mice are used for each dose and they are treated with a single dose of the complex on the treatment day. A group of ten control mice treated with a physiological saline solution was included in the experiment. The groups treated with cis-platinum are included as positive comparisons. The mice were weighed before the treatment and again on the fifth or sixth day and the average change in weight is taken as a measure of the toxicity. The animals are assessed daily for mortality and the experiments are ended after 30 days. The tumour activity is determined on the basis of % T/C, which is the ratio of mean survival time of the group treated with the active substance relative to the mean survival time of the comparison group treated with a physiological saline solution times 100. The mice treated with physiological saline solution usually have a mean survival time of 7 days. A compound is regarded as active when this gives a % T/C≥125%.

For series [1], the system named is M5076 reticulum cell sarcoma. Briefly: Action against M5076 sarcoma, intraperitoneal implantation, i.p. treatment. Type of series: in vivo, BDF1 mice. As to the method:
(§1) The complex was also assessed for anti-tumour action against M5076 sarcoma. BDF1 mice, 8 per group, were inoculated intraperitoneally with 10^6 cells of M5076 or subcutaneously with a fragment of a M5076 tumour.
(§2) Mice with an intraperitoneal tumour were treated intraperitoneally starting 13 days after the implantation and this was continued on days 17, 21 and 25, resulting in 4 treatments in all. Mice with an implanted subcutaneous tumour were treated intravenously starting 5 days after the implantation and again on days 9, 13 and 17. Therefore a total of four treatments. Four doses of the complex were tested. A comparison group treated with physiological saline solution and groups treated with cs-platinum are included in this experiment. The mice were assessed daily for survival and the tests were ended after 75 to 80 days. The anti-tumour action was determined on the basis of a) mean survival time of the mice treated with the active substance relative to that of the untreated mice (% T/C) and b) the mean time for subcutaneously implanted tumours to reach a weight of 1 gram in mice treated with active substance relative to the untreated mice (T-C). A compound is regarded as active if this gives a T/C≥125% or is T-C≥13 days.

In series [2] the test system is M5076 reticulum cell sarcoma. The series can be described thus: Action against M5076 sarcoma, subcutaneous implantation, i.v. treatment. To be noted: for T-C: time to 1 gram tumour. Type of series: in vivo, BDF1 mice. As to the method:
as §1, §2

A further series deals with A2780/124. To be noted: for IC50 ratio: IC50 A2780/124 versus IC50 A2780.
In another series the test system is A2780/DDP. To be noted: for IC50 ratio: IC50 A2780/DDP versus IC50 A2780.
The conditions of series [3]: B. Rosenberg et al., Nature 222 (1969); cited from earlier work.
The subject of the next series is B16-F10 murine melanoma. Briefly: In vitro cytotoxicity, B16-F10. To be noted: B16-F10, 72 hours. Type of series: cell-based.
Series [4] deals with HCT-116 human colon carcinoma. The series can be described thus: In vitro cytotoxicity, HCT-116. The class given is cell-based. To be noted: HCT116, 72 hours.
Description: (§3) The cytotoxic action of the platinum complex was evaluated in vitro in a cell line panel consisting of B16-F10 murine melanoma, HCT-116 human colon carcinoma, A2780 human ovary carcinoma and 2 sub-lines of A2780 which are resistant to cis-platinum, i.e. A2780/124 and A2780/PPD respectively. The B16-F10 cell line was kept in a culture of Eagle's Minimum Essential Medium (MEM) with Earle's salts (Gibco) enriched with 2 mmol L-glutamine, 2.06 mmol sodium pyruvate, insulin (0.26 units/ml), penicillin/streptomycin (10 units/ml and 10 mcg/ml respectively), MEM non-essential amino acids (0.6% by weight Gibco) and 10% foetal bovine serum (Hyclone). The HCT-116 cells were cultured in McCoy's 5A medium (modified Gibco) which was supplemented with 2 mmol L-glutamine, 0.12 mmol L-serine, 0.17 mmol asparagine, 1.5 mmol sodium pyruvate, MEM essential amino acids (0.625%, Gibco), MEM non-essential amino acids (0.67%, Gibco), MEM vitamins (0.6%, Gibco), foetal calf serum (10%, Hyclone) and penicillin/streptomycin (10 units/ml and 10 mcg/ml). […]
(§4) Logarithmically growing cells are harvested by mild trypsinisation and 4,000 cells are added to a microtitre plate with 96 wells (Costar). […] The spot is rendered soluble with 0.2 ml 0.1M acetic acid/ethanol (1:1) and the optical densities are determined with the aid of a Dynatech MR 600 microtitre plate reader. […]
Series [5] has as its system A2780 human ovary carcinoma. Briefly: In vitro cytotoxicity, A2780. To be noted: A2780, 72 hours. The class given is cell-based.
Description: as §3, §4
For series [6], the system named is B16-F10, HCT-116, A2780, A2780/124 and A2780/DDP. The class given is cell-based, murine and human.
Description: as §3, §4
[7] abbreviates: 2.4 mg/kg i.v. on days 5, 9, 13 and 17.
Where [8] appears, read: 4.8 mg/kg i.v. on days 5, 9, 13 and 17.
Where [9] appears, read: 4 mg/kg i.v. on days 5, 9, 13 and 17.
The mark [10] stands for this setting: 6 mg/kg i.v. on days 5, 9, 13 and 17.
The mark [11] stands for this setting: 8 mg/kg i.v. on days 5, 9, 13 and 17.
The mark [12] stands for this setting: 12 mg/kg i.v. on days 5, 9, 13 and 17.

Description for B16-F10 murine melanoma: as §3, §4

`N.N.[Cl][Pt][Cl]` [Cis-platinum, cis-diamine-dichloroplatinum, reference compound]: the “maximum % T/C” value with L1210 murine leukaemia (6-10 mg/kg) is given as 138%. Also, the “% T/C” value in series [1] (2.4 mg/kg i.p. on days 13, 17, 21 and 25) amounted to 164%; in series [1] (4.8 mg/kg i.p. on days 13, 17, 21 and 25) it was 166%; in series [2] (setting [7]), 144%; in [2] (setting [8]), 141%. Further, the T-C is 23.3 days in [2] (setting [7]) and 31.8 days in series [2] (setting [8]). The results for the IC50 ratio with A2780/124 and in the series with A2780/DDP were 10 and 12.6, respectively. In addition, in series [3], the “anti-tumour activity” value was “very strong anti-tumour activity”.

Regarding `CC(C)C(CN)(CN)C(C)C.O=C([O-])C(=O)[O-].[Pt+2]` [TNO-56, 2,2-Diisopropyl-1,3-diaminopropaneoxalatoplatinum (II)], the IC50 stood at 43 µg/mL in the series with B16-F10 murine melanoma; 115 µg/mL in series [4]; 221 µg/mL in [5]; 155 µg/mL in the series with A2780/124 (A2780/124, 72 hours); 110 µg/mL in the series with A2780/DDP (A2780/DDP, 72 hours). For the same compound, the “% T/C” value with L1210 murine leukaemia (10 mg/kg i.p.) was 125%; in the series with L1210 murine leukaemia (20 mg/kg i.p.), 144%; in the series with L1210 murine leukaemia (40 mg/kg i.p.) it was 88%; in [1] (4 mg/kg i.p. on days 13, 17, 21 and 25), 139%; in series [1] (6 mg/kg i.p. on days 13, 17, 21 and 25), 154%; in series [1] (8 mg/kg i.p. on days 13, 17, 21 and 25) it was 161%. Besides, the “% T/C” value came to 193% in [1] (12 mg/kg i.p. on days 13, 17, 21 and 25); 119% in series [2] (setting [9]); 135% in [2] (setting [10]); 140% in series [2] (setting [11]); 144% in series [2] (setting [12]). For the same compound, the “activity” value with L1210 murine leukaemia (10 and 20 mg/kg i.p., active if % T/C≥125%) was “active”; in series [1] (all doses tested, i.p.), “active”. Also, the T-C in series [2] (setting [9]) amounted to 7.8 days; in series [2] (setting [10]) it was 14.0 days; in [2] (setting [11]), 21.5 days; in series [2] (setting [12]), 26.8 days. Further, the “% T/C and tumour inhibition” value in series [2] (dose dependence, i.v.) was “dosage-dependent increase in % T/C and tumour inhibition”. In addition, in series [6], the “cytotoxic action” value is “cytotoxic for all five cell lines”. In addition, the results for the IC50 ratio with A2780/124 and in the series with A2780/DDP were 0.7 and 0.5, respectively.
